Experimental data from patent US20150105252A1, “SUBSTITUTED PYRAZOLES AS HERBICIDES” (E I DU PONT DE NEMOURS AND COMPANY, priority 2013, published 2015).

What was measured:
wheat = experiment: Test C preemergence; format: in vivo, Triticum aestivum; conditions: preemergence; for Plant response rating, Wheat: 125 g ai/ha, scale 0 to 100, 0 = no effect, 100 = complete control
Summary of the method: (§1)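 Visual rating, 0–100 scale (0 no effect, 100 complete control), vs untreated controls after 13–15 d greenhouse. Pre: seeds in loam/sand, treated at sowing. Post: plants in peat-based mix, 1- to 4-leaf (2–18 cm). Solvent + surfactant formulation, non-phytotoxic.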

crabgrass, large [1] = experiment: Test C postemergence; format: in vivo, Digitaria sanguinalis; conditions: for Plant response rating (scale of 0 to 100 where 0 is no effect and 100 is complete control), Crabgrass, Large: Postemergence, 31 g ai/ha, visually evaluated after 13 to 15 days; for Crabgrass, Large plant response rating / Plant response rating, Crabgrass, Large: postemergence; for Crabgrass, Large plant response rating: 62 g ai/ha, scale 0 to 100
Summary of the method: as §1

johnsongrass [2] = experiment: Test C preemergence; format: in vivo, Sorghum halepense; conditions: preemergence; for Plant response rating, Johnsongrass: 125 g ai/ha, scale 0 to 100, 0 = no effect, 100 = complete control
Summary of the method: as §1

velvetleaf [3] = experiment: Test C postemergence; format: in vivo, Abutilon theophrasti; conditions: postemergence; for Plant response rating, Velvetleaf: 250 g ai/ha, scale 0 to 100 (0 no effect, 100 complete control)
Summary of the method: as §1

lambsquarters = experiment: Test C preemergence; format: in vivo, Chenopodium album; conditions: preemergence; for Plant response rating, Lambsquarters: 125 g ai/ha, scale 0 to 100, 0 = no effect, 100 = complete control
Summary of the method: as §1

chickweed = experiment: Test C postemergence; format: in vivo, Stellaria media; conditions: for Plant response rating (scale of 0 to 100 where 0 is no effect and 100 is complete control), Chickweed: Postemergence, 31 g ai/ha, visually evaluated after 13 to 15 days; for Chickweed plant response rating / Plant response rating, Chickweed: postemergence; for Chickweed plant response rating: 62 g ai/ha, scale 0 to 100
Summary of the method: as §1

blackgrass = experiment: Test C postemergence; format: in vivo, Alopecurus myosuroides; conditions: for Plant response rating (scale of 0 to 100 where 0 is no effect and 100 is complete control), Blackgrass: Postemergence, 31 g ai/ha, visually evaluated after 13 to 15 days; for Blackgrass plant response rating / Plant response rating, Blackgrass: postemergence; for Blackgrass plant response rating: 62 g ai/ha, scale 0 to 100
Summary of the method: as §1

morningglory = experiment: Test C postemergence; format: in vivo, Ipomoea coccinea; conditions: for Plant response rating (scale of 0 to 100 where 0 is no effect and 100 is complete control), Morningglory: Postemergence, 31 g ai/ha, visually evaluated after 13 to 15 days; for Morningglory plant response rating / Plant response rating, Morningglory: postemergence; for Morningglory plant response rating: 62 g ai/ha, scale 0 to 100
Summary of the method: as §1

barnyardgrass = experiment: Test C preemergence; format: in vivo, Echinochloa crus-galli; conditions: preemergence; for Plant response rating, Barnyardgrass: 125 g ai/ha, scale 0 to 100, 0 = no effect, 100 = complete control
Summary of the method: as §1

galium = experiment: Test C preemergence; format: in vivo, Galium aparine; conditions: preemergence; for Plant response rating, Galium: 125 g ai/ha, scale 0 to 100, 0 = no effect, 100 = complete control
Summary of the method: as §1

crabgrass, large [4] = experiment: Test A postemergence; format: in vivo, Digitaria sanguinalis
Summary of the method: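 Growth medium: loam soil blended with sand. Preemergence treatment used a directed soil spray right after planting; postemergence treatment targeted seedlings at one to two leaves (2–10 cm height). Response was judged by eye relative to untreated plants about 10 days later on a 0–100 control scale.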

johnsongrass [5] = experiment: Test C postemergence; format: in vivo, Sorghum halepense; conditions: for Plant response rating (scale of 0 to 100 where 0 is no effect and 100 is complete control), Johnsongrass: Postemergence, 31 g ai/ha, visually evaluated after 13 to 15 days; for Johnsongrass plant response rating / Plant response rating, Johnsongrass: postemergence; for Johnsongrass plant response rating: 62 g ai/ha, scale 0 to 100
Summary of the method: as §1

soybean = experiment: Test C preemergence; format: in vivo, Glycine max; conditions: preemergence; for Plant response rating, Soybean: 125 g ai/ha, scale 0 to 100, 0 = no effect, 100 = complete control
Summary of the method: as §1

velvetleaf [6] = experiment: Test C preemergence; format: in vivo, Abutilon theophrasti; conditions: preemergence; for Plant response rating, Velvetleaf: 125 g ai/ha, scale 0 to 100, 0 = no effect, 100 = complete control
Summary of the method: as §1

oilseed rape = experiment: Test C preemergence; format: in vivo, Brassica napus; conditions: preemergence; for Plant response rating, Oilseed Rape: 125 g ai/ha, scale 0 to 100, 0 = no effect, 100 = complete control
Summary of the method: as §1

[7] = 31 g ai/ha, visual rating, scale 0 to 100 (0 no effect, 100 complete control), 13 to 15 days
[8] = 62 g ai/ha, scale 0 to 100 (0 no effect, 100 complete control), 13 to 15 days
[9] = 250 g ai/ha, scale 0 to 100, 0 is no effect, 100 is complete control
[10] = 250 g ai/ha, scale 0 to 100 (0 no effect, 100 complete control)
[11] = 125 g ai/ha, scale 0 to 100, 0 no effect, 100 complete control
[12] = Postemergence, 500 g ai/ha, 0 to 100 scale (0 no effect, 100 complete control)
[13] = postemergence, 125 g ai/ha, about 10 days, visual rating on 0 to 100 scale (0 no effect, 100 complete control)

Compound: CCOc1cc(C(=O)NC(C)C)nn1Cc1ccnc(C(F)(F)F)c1 [Compound 188]
- Wheat plant response rating (wheat; [7]): 85
- Wheat plant response rating (wheat; [8]): 90
- Plant response rating, Wheat (wheat; 13 to 15 days): 90
- Wheat plant response rating (wheat; [9]): 90
- Plant response rating (scale of 0 to 100 where 0 is no effect and 100 is complete control), Crabgrass, Large (crabgrass, large [1]): 5
- Crabgrass, Large plant response rating (crabgrass, large [1]): 55
- Plant response rating, Crabgrass, Large (crabgrass, large [1]; [10]): 95
- Plant response rating, Crabgrass, Large (crabgrass, large [1]; [11]): 70
- Johnsongrass plant response rating (johnsongrass [2]; [7]): 80
- Johnsongrass plant response rating (johnsongrass [2]; [8]): 98
- Plant response rating, Johnsongrass (johnsongrass [2]; 13 to 15 days): 100
- Johnsongrass plant response rating (johnsongrass [2]; [9]): 100
- Plant response rating, Velvetleaf (velvetleaf [3]): 80
- Velvetleaf plant response rating (velvetleaf [3]; scale 0 to 100): 60
- Lambsquarters plant response rating (lambsquarters; [7]): 100
- Lambsquarters plant response rating (lambsquarters; [8]): 100
- Plant response rating, Lambsquarters (lambsquarters; 13 to 15 days): 100
- Lambsquarters plant response rating (lambsquarters; [9]): 100
- Plant response rating (scale of 0 to 100 where 0 is no effect and 100 is complete control), Chickweed (chickweed): 70
- Chickweed plant response rating (chickweed): 85
- Plant response rating, Chickweed (chickweed; [10]): 98
- Plant response rating, Chickweed (chickweed; [11]): 80
- Plant response rating (scale of 0 to 100 where 0 is no effect and 100 is complete control), Blackgrass (blackgrass): 5
- Blackgrass plant response rating (blackgrass): 5
- Plant response rating, Blackgrass (blackgrass; [10]): 70
- Plant response rating, Blackgrass (blackgrass; [11]): 40
- Plant response rating (scale of 0 to 100 where 0 is no effect and 100 is complete control), Morningglory (morningglory): 85
- Morningglory plant response rating (morningglory): 90
- Plant response rating, Morningglory (morningglory; [10]): 98
- Plant response rating, Morningglory (morningglory; [11]): 98
- Barnyardgrass plant response rating (barnyardgrass; [7]): 100
- Barnyardgrass plant response rating (barnyardgrass; [8]): 100
- Plant response rating, Barnyardgrass (barnyardgrass; 13 to 15 days): 100
- Barnyardgrass plant response rating (barnyardgrass; [9]): 100
- Galium plant response rating (galium; [7]): 98
- Galium plant response rating (galium; [8]): 100
- Plant response rating, Galium (galium; 13 to 15 days): 100
- Galium plant response rating (galium; [9]): 100
- Crabgrass, Large plant response rating (crabgrass, large [4]; [12]): 90
- Crabgrass, Large plant response rating (crabgrass, large [4]; [13]): 90
- Plant response rating (scale of 0 to 100 where 0 is no effect and 100 is complete control), Johnsongrass (johnsongrass [5]): 0
- Johnsongrass plant response rating (johnsongrass [5]): 0
- Plant response rating, Johnsongrass (johnsongrass [5]; [10]): 65
- Plant response rating, Johnsongrass (johnsongrass [5]; [11]): 50
- Soybean plant response rating (soybean; [7]): 90
- Soybean plant response rating (soybean; [8]): 90
- Plant response rating, Soybean (soybean; 13 to 15 days): 95
- Soybean plant response rating (soybean; [9]): 98
- Velvetleaf plant response rating (velvetleaf [6]; [7]): 100
- Velvetleaf plant response rating (velvetleaf [6]; [8]): 100
- Plant response rating, Velvetleaf (velvetleaf [6]; 13 to 15 days): 100
- Velvetleaf plant response rating (velvetleaf [6]; [9]): 100
- Oilseed Rape plant response rating (oilseed rape; [7]): 100
- Oilseed Rape plant response rating (oilseed rape; [8]): 100
- Plant response rating, Oilseed Rape (oilseed rape; 13 to 15 days): 100
- Oilseed Rape plant response rating (oilseed rape; [9]): 100

Compound: CCOc1cc(C(=O)NC2CC2)nn1Cc1ccnc(C(F)(F)F)c1 [Compound 189]
- Wheat plant response rating (wheat; [7]): 40
- Wheat plant response rating (wheat; [8]): 80
- Plant response rating, Wheat (wheat; 13 to 15 days): 90
- Wheat plant response rating (wheat; [9]): 90
- Plant response rating (scale of 0 to 100 where 0 is no effect and 100 is complete control), Crabgrass, Large (crabgrass, large [1]): 5
- Crabgrass, Large plant response rating (crabgrass, large [1]): 5
- Plant response rating, Crabgrass, Large (crabgrass, large [1]; [10]): 90
- Plant response rating, Crabgrass, Large (crabgrass, large [1]; [11]): 65
- Johnsongrass plant response rating (johnsongrass [2]; [7]): 65
- Johnsongrass plant response rating (johnsongrass [2]; [8]): 98
- Plant response rating, Johnsongrass (johnsongrass [2]; 13 to 15 days): 100
- Johnsongrass plant response rating (johnsongrass [2]; [9]): 100
- Plant response rating, Velvetleaf (velvetleaf [3]): 75
- Lambsquarters plant response rating (lambsquarters; [7]): 98
- Lambsquarters plant response rating (lambsquarters; [8]): 100
- Plant response rating, Lambsquarters (lambsquarters; 13 to 15 days): 100
- Lambsquarters plant response rating (lambsquarters; [9]): 100
- Plant response rating (scale of 0 to 100 where 0 is no effect and 100 is complete control), Chickweed (chickweed): 80
- Chickweed plant response rating (chickweed): 80
- Plant response rating, Chickweed (chickweed; [10]): 90
- Plant response rating, Chickweed (chickweed; [11]): 85
- Plant response rating (scale of 0 to 100 where 0 is no effect and 100 is complete control), Blackgrass (blackgrass): 5
- Blackgrass plant response rating (blackgrass): 5
- Plant response rating, Blackgrass (blackgrass; [10]): 50
- Plant response rating, Blackgrass (blackgrass; [11]): 10
- Plant response rating (scale of 0 to 100 where 0 is no effect and 100 is complete control), Morningglory (morningglory): 75
- Morningglory plant response rating (morningglory): 80
- Plant response rating, Morningglory (morningglory; [10]): 98
- Plant response rating, Morningglory (morningglory; [11]): 95
- Barnyardgrass plant response rating (barnyardgrass; [7]): 95
- Barnyardgrass plant response rating (barnyardgrass; [8]): 100
- Plant response rating, Barnyardgrass (barnyardgrass; 13 to 15 days): 100
- Barnyardgrass plant response rating (barnyardgrass; [9]): 100
- Galium plant response rating (galium; [7]): 90
- Galium plant response rating (galium; [8]): 95
- Plant response rating, Galium (galium; 13 to 15 days): 100
- Galium plant response rating (galium; [9]): 100
- Crabgrass, Large plant response rating (crabgrass, large [4]; [12]): 90
- Crabgrass, Large plant response rating (crabgrass, large [4]; [13]): 90
- Plant response rating (scale of 0 to 100 where 0 is no effect and 100 is complete control), Johnsongrass (johnsongrass [5]): 0
- Johnsongrass plant response rating (johnsongrass [5]): 15
- Plant response rating, Johnsongrass (johnsongrass [5]; [10]): 35
- Plant response rating, Johnsongrass (johnsongrass [5]; [11]): 5
- Soybean plant response rating (soybean; [7]): 20
- Soybean plant response rating (soybean; [8]): 95
- Plant response rating, Soybean (soybean; 13 to 15 days): 98
- Soybean plant response rating (soybean; [9]): 98
- Velvetleaf plant response rating (velvetleaf [6]; [7]): 98
- Velvetleaf plant response rating (velvetleaf [6]; [8]): 100
- Plant response rating, Velvetleaf (velvetleaf [6]; 13 to 15 days): 100
- Velvetleaf plant response rating (velvetleaf [6]; [9]): 100
- Oilseed Rape plant response rating (oilseed rape; [7]): 98
- Oilseed Rape plant response rating (oilseed rape; [8]): 95
- Plant response rating, Oilseed Rape (oilseed rape; 13 to 15 days): 95
- Oilseed Rape plant response rating (oilseed rape; [9]): 95
